Results published in patent EP0642504B1 (priority 1991, dated 1993).
Marks after values point to notes of the source that are not given here.

How the values were obtained:
[1] = tested on: forebrain ischemia (unilateral occlusion); assay: Forebrain ischemia (unilateral occlusion); format: in vivo; conditions: mongolian gerbils
Text: (§1) The present compounds are active in several tests generally used to indicate neuroprotection.

[2] = tested on: mouse; assay: Mouse hot plate test (55°C) for antinociception; format: in vivo
Description: In the hot plate test for analgesia an aluminum surface was maintained at 55 ± 1°C by circulating water through passages in the metal. A clear plastic cylinder 18 cm in diameter and 26 cm high was placed on the surface to prevent escape. The end point was taken when the mouse either performed a hind paw lick or jumped off the surface; in no case were the animals kept for more than 30 secs on the plate. Mice were never used more than one time; control values were always measured at 11 a.m. and test values at 2 p.m. The drugs were administered orally 90 min before the hot plate test. The percent change in response time (latency) was calculated by comparing the mean of the control values with the mean of the test values and statistical signficance determined by a paired t-test analysis using software (Statview, 512) from Brainpower, Inc., Calabasas, Ca.

[3] = tested on: picrotoxin induced lethality; assay: Protection against picrotoxin induced lethality; format: in vivo, Balb/c male mice; conditions: drug 10 mg/kg, 120 min before picrotoxin (8 mg/kg) s.c.; no drug 0/17
Text: as §1

[4] = tested on: PAF-Induced Paw Edema; assay: PAF-induced paw edema (water displacement); format: in vivo, CD-1 female mice; conditions: for percent inhibition of paw edema: oral, 15 min after PAF (1.0 µg s.c.), vs vehicle treated controls
Description: A second model, in which edema is induced by platelet activating factor (PAF), was used to evaluate activity.
(§2) The conditions were based on those reported previously [Calhoun et al., ibid.]. […] PAF (1.0 µg) or arachidonic acid (1.0 mg) dissolved in 50 µl of 5% ethanol in saline, were injected s.c. into the plantar surface of the right hind paw of CD-1 female mice (20-25 g) obtained from Charles River Labs. The mice were under ether anesthesia during this procedure. The volume of the right foot was measured to the level of the lateral malleous by water displacement before treatment and 15 min after PAF injection or 30 min after archidonate injection. The change in paw volume was calculated for each mouse and the significance for each group was determined by a paired t test analysis.

[5] = tested on: peritoneal leukocytes; assay: Leukocyte adhesion assay, peritoneal cells collected after oral dosing; format: in vivo, CD-1 mice
Description: Leukocytes are thought to be major contributors to the inflammatory response and their ability in this regard is reflected by their adhesiveness to a variety of substrates [Audette, C.A., et al., Life Sci., 47, 753 (1990)].
The details of the leukocytes adhesion assay have been previously reported [Audette et al., ibid.]. In brief, peritoneal cells from femals CD-1 mice (20-25 g) were collected at 90 min following oral administration of the drug or vehicle (50 µl peanut oil). Cells from each treatment group (N=3) were pooled and equal numbers aliquoted into six culture dish wells (1.9 cm^2 area). After incubation for 18-20 hours, non-adhering cells were removed and the remaining cell monolayer quantitated by DNA measurement.

[6] = tested on: N-methyl-D-aspartate (NMDA) induced lethality; assay: Protection against NMDA induced lethality; format: in vivo, Balb/c male mice; conditions: drug 10 mg/kg, 90 min before NMDA (125 mg/kg) s.c.; no drug 0/20
Text: as §1

[7] = tested on: Arachidonic Acid-Induced Paw Edema; assay: Arachidonic acid-induced paw edema (water displacement); format: in vivo, CD-1 female mice; conditions: for percent inhibition of paw edema: oral, 30 min after arachidonic acid (1.0 mg s.c.), vs vehicle treated controls
Description: The induction of paw edema in rodents by injection of arachidonic acid has been used as an experimental model for inflammation [Calhoun, W., et al., Agents and Actions, 21, 306 (1987)]. Prior administration of non-steroidal anti-inflammatory drugs (NSAIDs) in many cases leads to a dose related inhibition of the edematous response which may be considered a predictor of clinical efficacy.
as §2

[8] = tested on: mouse; assay: Ring test for cataleptic effects; format: in vivo; conditions: 5-min test period, vehicle 7.7 ± 4.4
Description: The lack of CNS activity for the compounds described herein may be seen from the data shown in Table V. This was measured by the so-called "ring test" [Pertwee, R.G., et al., J. Pharmacol., 46, 753 (1972)] in which the cataleptic effects of cannabinoids can be quantitated. The compounds produced little or no response when compared with the parent drug.
The cataleptic response was measured using the ring test. Mice were placed on a horizontal wire ring 5.5 cm in diameter, which was attached to a 16 cm vertical rod. The hind paws and fore paws were placed at opposite sides of the ring. It is important that the ambient temperature is maintained at 30°C and that the environment be free of auditory stimuli and bright lights. The criteria for immobility are detailed by Pertwee. The response is calculated as the fraction of time the mouse is immobile over a 5-min test period. Measurements were always done between 2 and 4 p.m. and the animals were used only once.

[9] = tested on: intraocular pressure; assay: Reduction of intraocular pressure (anti-glaucoma activity); format: in vivo, rabbits; conditions: 50 µl drop of a 1% emulsion into the rabbit eye
Description: Reduction of intraocular pressure in rabbits was determined by the addition of a 50 µl drop of a 1% emulsion of the cannabinoid into the rabbit eye. This test is a measure of anti-glaucomatic activity.

[10] = dose 0.25 mg/kg orally 90 min before the hot plate test
[11] = dose 0.50 mg/kg orally 90 min before the hot plate test
[12] = dose 1.0 mg/kg orally 90 min before the hot plate test
[13] = dose 0.05 mg/kg oral, cells collected 90 min after administration
[14] = dose 0.05 mg/kg oral, cells collected 90 min after administration, 18-20 hours incubation
[15] = dose 0.10 mg/kg oral, cells collected 90 min after administration
[16] = dose 0.10 mg/kg oral, cells collected 90 min after administration, 18-20 hours incubation
[17] = dose 0.50 mg/kg oral, cells collected 90 min after administration
[18] = dose 0.50 mg/kg oral, cells collected 90 min after administration, 18-20 hours incubation
[19] = dose 1.00 mg/kg oral, cells collected 90 min after administration
[20] = dose 1.00 mg/kg oral, cells collected 90 min after administration, 18-20 hours incubation

| Compound | protection against forebrain ischemia [1] | percent change in latency [2, 10] | percent change in latency [2, 11] | percent change in latency [2, 12] | Survival rate (number of survivors out of total number of animals used) [3] | percent inhibition of paw edema ([4]; dose 0.5 mg/kg) | adhering cells, percent of control [5, 13] | number of adhering cells x 10^-6 ± S.D. [5, 14] | adhering cells, percent of control [5, 15] | number of adhering cells x 10^-6 ± S.D. [5, 16] | adhering cells, percent of control [5, 17] | number of adhering cells x 10^-6 ± S.D. [5, 18] | adhering cells, percent of control [5, 19] | number of adhering cells x 10^-6 ± S.D. [5, 20] | Survival rate (number of survivors out of total number of animals used) [6] | other results |
| --- | --- | --- | --- | --- | --- | --- | --- | --- | --- | --- | --- | --- | --- | --- | --- | --- |
| CCCCCCC(C)(C)c1cc(O)c2c(c1)OC(C)(C)[C@H]1CC=C(CO)C[C@H]21 [HU-211, reference compound] | protect against forebrain ischemia | 30.0(5)* percent | 72.5(5)*** percent | -10.2(5) percent | 6/10 | 37.5% | 124% of control | 1.09±0.08 x 10^-6 | 50% of control | 0.44±0.03 x 10^-6 | 73% of control | 0.64±0.06 x 10^-6 | 67% of control | 0.59±0.06 x 10^-6 | 11/16 | percent inhibition of paw edema ([4]; dose 1.0 mg/kg): 21.9% |
| CCCCCc1cc(O)c2c(c1)OC(C)(C)[C@@H]1CC=C(C(=O)O)C[C@@H]21 [Δ^6-THC-7-oic acid, reference compound] |  |  |  |  |  |  |  |  |  |  |  |  |  |  |  | percent inhibition of paw edema ([4]; dose 40.0 mg/kg): 50.2% |
| CCCCCCC(C)(C)c1cc(O)c2c(c1)OC(C)(C)[C@H]1CC=C(C(=O)O)C[C@H]21 [HU-235] | protect against forebrain ischemia | 61.5(17)** percent | 51.7(8)* percent | 14.7(5) percent | 8/12 | 60.1* percent | 102% of control | 1.29±0.05 x 10^-6 | 110% of control | 1.38±0.17 x 10^-6 | 116% of control | 1.46±0.05 x 10^-6 | 56% of control | 0.70±0.12 x 10^-6 | 7/10 | percent change in latency ([2]; dose 0.025 mg/kg orally 90 min before the hot plate test): 10.3(5) percent; percent change in latency ([2]; dose 0.050 mg/kg orally 90 min before the hot plate test): 61.7(5)* percent; percent change in latency ([2]; dose 0.10 mg/kg orally 90 min before the hot plate test): 49.5(20)* percent; reduction of paw edema (result in words) ([7]; arachidonic acid model, summary of Table 1): effective in reducing paw edema; percent inhibition of paw edema ([7]; dose 0.050 mg.kg): 42.1 (N.S.) percent; percent inhibition of paw edema ([7]; dose 0.100 mg.kg): 65.8* percent; percent inhibition of paw edema ([7]; dose 0.250 mg.kg): 52.6* percent; percent inhibition of paw edema ([7]; dose 0.55 mg.kg): 47.4%; Response ± SD (means of the fraction of time the mice remained immobile) ([8]; dose 0.25 mg/kg): 12.3 ± 10.3; Response ± SD (means of the fraction of time the mice remained immobile) ([8]; dose 0.5 mg/kg): 13.8 ± 7.9; Response ± SD (means of the fraction of time the mice remained immobile) ([8]; dose 1.0 mg/kg): 10.4 ± 10.6; Response ± SD (means of the fraction of time the mice remained immobile) ([8]; dose 4.0 mg/kg): 8.7 ± 5.6; percent inhibition of paw edema ([4]; dose 0.05 mg/kg): 44.4 (N.S.) percent; percent inhibition of paw edema ([4]; dose 0.10 mg/kg): 38.7* percent; percent inhibition of paw edema ([4]; dose 0.25 mg/kg): 31.9* percent; activity against PAF-induced edema (result in words) ([4]; summary of Table II): active; adhering cells, percent of control ([5]; dose 0.01 mg/kg oral, cells collected 90 min after administration): 106% of control; number of adhering cells x 10^-6 ± S.D. ([5]; dose 0.01 mg/kg oral, cells collected 90 min after administration, 18-20 hours incubation): 1.34±0.14 x 10^-6; Reduction of intraocular pressure [9]: Significant reduction |
| THC-7-oic Acid [reference compound] |  |  |  |  |  |  |  |  |  |  |  |  |  |  |  | number of adhering cells x 10^-6 ± S.D. ([5]; dose 20 mg/kg oral, cells collected 90 min after administration, own control 0.81±0.03): 0.67±0.02 x 10^-6; adhering cells, percent of control ([5]; dose 20 mg/kg oral, own control 0.81±0.03): 90.6% of control; number of adhering cells x 10^-6 ± S.D. ([5]; dose 40 mg/kg oral, cells collected 90 min after administration, own control 0.81±0.03): 0.55±0.22 x 10^-6; adhering cells, percent of control ([5]; dose 40 mg/kg oral, own control 0.81±0.03): 67.9% of control |
| CCCCCc1cc(O)c2c(c1)OC(C)(C)[C@@H]1CCC(C)=C[C@@H]21 [Δ^1-THC, reference compound] |  |  |  |  |  |  |  |  |  |  |  |  |  |  |  | Response ± SD (means of the fraction of time the mice remained immobile) ([8]; dose 40 mg/kg): 48.9 ± 16 |
